Laboratory results: publication PMC8534003, “The Chemokine-Based Peptide, CXCL9(74-103), Inhibits Angiogenesis by Blocking Heparan Sulfate Proteoglycan-Mediated Signaling of Multiple Endothelial Growth Factors” (Cancers, 2021)

Test system: heparan sulfate (HS) / VEGF165
Test: ELISA-like GAG binding assay, competition with VEGF165 for HS binding
Set-up: species or system human
Conditions: HS 25 µg/mL, pH 7.2, 37 °C, 2 h, n = 5
Method: The ability of the CXCL9-derived peptides to compete with VEGF165 for HS binding was assessed in an ELISA-like GAG binding assay. First, the GAG binding plates (Galen Laboratory Supplies, North Haven, CT, USA) were coated with 25 µg/mL HS (Iduron, Alderley Edge, UK) in standard assay buffer (SAB) [100 mM NaCl, 50 mM sodium acetate, 0.2% (v/v) Tween® 20 in ultrapure water, pH 7.2] at room temperature overnight. The plates were washed with SAB and blocked with blocking buffer [SAB supplemented with 0.2% (w/v) gelatin] at 37 °C for 1 h to prevent nonspecific binding. Then, dilutions of VEGF165 and the peptides, CXCL9(74-103) or CXCL9(86-103), were added and allowed to interact at 37 °C for 2 h. Unbound material was removed through washing and biotinylated polyclonal goat anti-human VEGF165 antibody (PeproTech) in blocking buffer was added to interact with HS-bound VEGF165 at 37 °C for 1 h. Following additional washing steps, detection was performed with streptavidin-horseradish peroxidase (HRP) (R&D Systems) in blocking buffer at 37 °C for 30 min and conversion of 3,3’,5,5’-tetramethylbenzidine (TMB) to a colorimetric signal in the presence of 0.015% (v/v) H2O2. The reaction was stopped by the addition of H2SO4 and the absorbance was measured at 450 nm. All incubation steps were performed in the dark.

- inhibition of VEGF165 binding to HS (30-fold molar excess of peptide over VEGF165): ≈ 20%
- inhibition of VEGF165 binding to HS (300-fold molar excess of peptide over VEGF165): 40%
Sequence: KKVLKVRKSQRSRQKKTT [CXCL9(86-103)]
